Source: publication PMC3925373 (Bioorganic & medicinal chemistry, 2013)
Structures can show the parent of a compound that is named as a salt. Where two headings read alike, the source gives them in different places.

Tests used:
[1] = target: T1, Human matrix metalloprotease-1 (Homo sapiens, UniProt P03956); test: Human MMP-1 FRET assay; type: biochemical
T1 sequence (P03956 100-469): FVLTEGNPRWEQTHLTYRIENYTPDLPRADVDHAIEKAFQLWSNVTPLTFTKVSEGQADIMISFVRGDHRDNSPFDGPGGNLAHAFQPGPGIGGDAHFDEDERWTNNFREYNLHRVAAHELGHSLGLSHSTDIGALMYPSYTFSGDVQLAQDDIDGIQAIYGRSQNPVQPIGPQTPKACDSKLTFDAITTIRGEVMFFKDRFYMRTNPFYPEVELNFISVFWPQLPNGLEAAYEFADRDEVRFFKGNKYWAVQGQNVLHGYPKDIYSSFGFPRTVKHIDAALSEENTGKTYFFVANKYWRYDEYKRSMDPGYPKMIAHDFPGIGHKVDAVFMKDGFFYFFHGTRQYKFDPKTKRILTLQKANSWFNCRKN

[2] = target: Bacillus anthracis lethal factor (Bacillus anthracis, UniProt P15917); test: biochemical; type: biochemical
BaLF = BaLF (Bacillus anthracis, UniProt P15917); type: biochemical
BoNT/A LC = BoNT/A LC (Clostridium botulinum, UniProt P0DPI0); test: biochemical; type: biochemical, Clostridium bolulinum
Sequence of BoNT/A LC (P0DPI0 2-448 limits assumed): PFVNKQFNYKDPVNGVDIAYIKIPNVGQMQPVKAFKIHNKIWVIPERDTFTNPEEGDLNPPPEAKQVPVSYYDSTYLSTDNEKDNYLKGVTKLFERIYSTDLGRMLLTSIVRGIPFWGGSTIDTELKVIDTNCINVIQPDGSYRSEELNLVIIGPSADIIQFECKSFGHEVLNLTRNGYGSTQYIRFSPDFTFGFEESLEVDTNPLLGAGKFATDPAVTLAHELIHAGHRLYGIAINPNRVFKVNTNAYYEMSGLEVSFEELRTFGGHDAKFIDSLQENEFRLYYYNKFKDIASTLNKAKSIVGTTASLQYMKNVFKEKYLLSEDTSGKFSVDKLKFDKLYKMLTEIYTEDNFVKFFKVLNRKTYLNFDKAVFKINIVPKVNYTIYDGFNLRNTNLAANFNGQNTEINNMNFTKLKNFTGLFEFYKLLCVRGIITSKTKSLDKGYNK

Sequence of Bacillus anthracis lethal factor (P15917 34-809 limits assumed): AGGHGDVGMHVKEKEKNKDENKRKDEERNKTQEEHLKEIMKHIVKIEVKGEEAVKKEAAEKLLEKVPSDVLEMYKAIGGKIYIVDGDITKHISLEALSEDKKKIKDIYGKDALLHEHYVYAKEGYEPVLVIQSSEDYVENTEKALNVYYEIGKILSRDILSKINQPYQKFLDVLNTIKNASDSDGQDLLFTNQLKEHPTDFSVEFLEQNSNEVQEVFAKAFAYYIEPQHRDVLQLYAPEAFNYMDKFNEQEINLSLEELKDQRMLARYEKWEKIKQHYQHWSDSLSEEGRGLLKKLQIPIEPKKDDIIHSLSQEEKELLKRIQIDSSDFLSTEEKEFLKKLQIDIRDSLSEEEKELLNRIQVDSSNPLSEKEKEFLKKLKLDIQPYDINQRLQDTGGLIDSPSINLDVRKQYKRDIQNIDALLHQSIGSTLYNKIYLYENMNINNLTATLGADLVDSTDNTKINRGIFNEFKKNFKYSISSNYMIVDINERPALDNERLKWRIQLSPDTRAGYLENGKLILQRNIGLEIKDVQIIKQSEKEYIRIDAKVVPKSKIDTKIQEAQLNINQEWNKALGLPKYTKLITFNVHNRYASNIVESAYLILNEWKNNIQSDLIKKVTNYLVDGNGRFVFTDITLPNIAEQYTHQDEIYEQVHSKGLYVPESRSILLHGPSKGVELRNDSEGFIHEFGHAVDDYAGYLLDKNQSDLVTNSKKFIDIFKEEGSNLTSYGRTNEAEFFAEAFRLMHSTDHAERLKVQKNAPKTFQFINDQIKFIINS
Sequence of BaLF (P15917 34-809 limits assumed): as above

Row | Compound | LF inhibitory activity (in words) [2] | other results
1 | Cc1cc(N)c2cc(NC(=O)Nc3ccc4nc(C)cc(N)c4c3)ccc2n1 [Compound 1] |  | IC50 [1]: > 100 µM
2 | Cc1cc(N)c2cc(NC(=O)CCc3ccccc3C)ccc2n1 [Compound 18aa, N-(4-Amino-2-methylquinolin-6-yl)-3-(2-methylphenyl)propionamide trifluoroacetate] | inactive | 
3 | COc1ccc(Br)cc1CCC(=O)Nc1ccc2nc(C)cc(N)c2c1 [Compound 18ee, N-(4-Amino-2-methylquinolin-6-yl)-3-(5-bromo-2-methoxyphenyl)propionamide trifluoroacetate] | inactive | 
4 | COc1ccc(Cl)cc1CCC(=O)Nc1ccc2nc(C)cc(N)c2c1 [Compound 18ff, N-(4-Amino-2-methylquinolin-6-yl)-3-(5-chloro-2-methoxyphenyl)propionamide trifluoroacetate] | inactive | 
5 | CCOc1ccccc1CCC(=O)Nc1ccc2nc(C)cc(N)c2c1 [Compound 18ii, N-(4-Amino-2-methylquinolin-6-yl)-3-(2-ethoxyphenyl)propionamide trifluoroacetate] | activity was also totally lost | 
6 | Cc1cc(N)c2cc(NC(=O)c3ccc(-c4ccc5ncccc5c4)cc3)ccc2n1 [Compound 18m, N-(4-Amino-2-methylquinolin-6-yl)-4-(quinoline-6-yl)benzamide trifluoroacetate] |  | mechanism of inhibition on BaLF activity (BaLF): noncompetitive
7 | COc1ccncc1CCC(=O)Nc1ccc2nc(C)cc(N)c2c1 [Compound 18oo, N-(4-Amino-2-methylquinolin-6-yl)-3-(4-methoxypyridin-3-yl)propionamide] | devoid of activity | 
8 | COc1ccsc1CCC(=O)Nc1ccc2nc(C)cc(N)c2c1 [Compound 18pp, N-(4-Amino-2-methylquinolin-6-yl)-3-(3-methoxythiophene-2-yl)propionamide trifluoroacetate] | devoid of activity | 
9 | COc1ccccc1CCC(=O)Nc1ccc2nc(C)cc(N)c2c1 [Compound 18t, N-(4-Amino-2-methylquinolin-6-yl)-3-(2-methoxyphenyl)propionamide trifluoroacetate] |  | mechanism of inhibition on BaLF activity (BaLF): noncompetitive
10 | COc1ccc(CCC(=O)Nc2ccc3nc(C)cc(N)c3c2)cc1 [Compound 18u, N-(4-Amino-2-methylquinolin-6-yl)-3-(4-methoxyphenyl)propionamide p-toluenesulfonate] | LF inhibitory activity was lost | 
11 | COc1cccc(CCC(=O)Nc2ccc3nc(C)cc(N)c3c2)c1 [Compound 18v, N-(4-Amino-2-methylquinolin-6-yl)-3-(3-methoxyphenyl)propionamide trifluoroacetate] | LF inhibitory activity was lost | 
12 | COc1ccc(OC)c(CCC(=O)Nc2ccc3nc(C)cc(N)c3c2)c1 [Compound 18w, N-(4-Amino-2-methylquinolin-6-yl)-3-(2,5-dimethoxyphenyl)propionamide p-toluenesulfonate] | complete loss of activity | 
13 | COc1cccc(CCC(=O)Nc2ccc3nc(C)cc(N)c3c2)c1OC [Compound 18x, N-(4-Amino-2-methylquinolin-6-yl)-3-(2,3-dimethoxyphenyl)propionamide p-toluenesulfonate] | complete loss of activity | 
14 | Cc1cc(N)c2cc(NC(=O)CCc3ccccc3OC(=O)c3ccccc3)ccc2n1 [Compound 18y, N-(4-Amino-2-methylquinolin-6-yl)-3-(2-benzoyloxyphenyl)propionamide trifluoroacetate] | inactive | 
15 | Cc1cc(N)c2cc(NC(=O)CCc3ccccc3Cl)ccc2n1 [Compound 18z, N-(4-Amino-2-methylquinolin-6-yl)-3-(2-chlorophenyl)propionamide trifluoroacetate] | inactive | 
16 | Cc1cc(N)c2cc(NC(=O)Nc3ccc4c(c3)OCO4)ccc2n1 [Compound 20a, 1-(4-Amino-2-methylquinolin-6-yl)-3-(benzo[d][1,3]dioxol-5-yl)urea trifluoroacetate] |  | IC50 [2]: 87 µM; IC50 (BoNT/A LC): 51 µM
17 | COc1cc(-c2cccnc2)ccc1CCC(=O)Nc1ccc2nc(C)cc(N)c2c1 [Compound 35, N-(4-Amino-2-methylquinolin-6-yl)-3-(2-methoxy-4-(pyridin-3-yl)phenyl)propanamide] |  | IC50 [2]: 55 µM
18 | N-(4-Amino-2-methylquinolin-6-yl)isoquinoline-3-carboxamide trifluoroacetate [Compound 18h] |  | IC50 (BoNT/A LC; read-out: IC50 BoNT/A): > 100 µM
19 | N-(4-Amino-2-methylquinolin-6-yl)quinoline-2-carboxamide trifluoroacetate [Compound 18g] |  | IC50 ([2]; read-out: IC50 LF): 52 µM
